# Measured values from patent publication US12268682B2, “Anticancer drug FL118 formulation for treatment of human cancer” (CANGET BIOTEKPHARMA, LLC, priority 2019, dated 2025).
# Key:
# [1] = BALE/cj mice; cited from earlier work
# Survivin = assay: Intracellular staining of Survivin in patient MM cells; type: cell-based, human; details: FL118-susceptible RR patients, 16 h
# Description: Intracellular staining Survivin and Mcl-1: Mcl-1 and survivin expression levels in MM cells of BMMNC patient samples were determined by intracellular staining followed by flow cytometry. Untreated or FL118 treated (16 h) patient samples were washed twice with cold PBS. Cells were blocked with human immunoglobulin and stained for CD38 (BD biosciences), CD138 (Bio-Connect) and live/dead cell marker. In addition, LUC- and Green fluorescence protein (GFP)-transduced UM9 MM-cells were incubated alone or a monolayer of 1×10^6 BMMSCs in a 100 mm dish for 24 or 48 hours. Non-adherent cells were harvested by taking culture medium from plates and washing plates with PBS by gentle pipetting. Adherent cells were harvested using Stem-Pro Accutase. Both adherent and non-adherent cells were blocked with human immunoglobulin and stained for CD105 (Synobiotechnology) and live/dead marker. The stained patient cells and UM9 cells were then fixated in 4% formaldehyde for 15 minutes at room temperature. After fixation, the cells were placed in ice cold 90% methanol for 30 minutes on ice for permeabilization and subsequently stored at −20° C. […] Expression levels were analyzed in viable CD38^+ CD138^+ patient MM cells and GFP^+ CD105^− UM9-cells using flow cytometry.
# T-cells and NK-cells = assay: Toxicity of FL118 on immune effector cells; type: cell-based, human; details: up to 100 nM
# Description: Toxicity of FL118 on immune effector cells: Cryopreserved BMMNCs derived from MM patients or plasma cell leukemia (PCL) patients, were treated with various concentrations of FL118. After 24 hours, viable CD45^+ CD3^+ T-cells and CD45^+ CD56^+ CD14^− CD3^− NK-cells were enumerated by multiparameter flow cytometry. Additionally, healthy-donor peripheral blood mononuclear cells (PBMCs) were seeded in 96-well flat-bottom plates at 1×10^5 cells/well, stimulated with PMA (25 ng/mL) and ionomycin (500 ng/mL) (both Santa Cruz Biotechnology) for 24 hours, and subsequently treated with FL118 for 48 hours before determining activated CD45^+ CD3^+ CD56^− CD25^+ T-cells by flow cytometry. The percentage cell survival was then calculated using the following formula: % immune cell survival=absolute number of viable immune cells in treated wells/mean absolute number of viable immune cells in untreated wells×100%.
# PDX tumors = details: in vivo; cited from earlier work
# cancer cell growth = details: cited from earlier work
# BMMSCs = assay: BMMSC viability (Cell TiterGlo)
# Description: A pool (n=12) of newly diagnosed-MM patient derived BMMSCs were treated with serial concentrations of FL118. Cell viability was determined by Cell TiterGlo after indicated period of time. Error bars represent the SD of three independent experiments.
# Bone Marrow derived Mesenchymal stromal cells (BMMSCs): Diagnostic BM aspirations from MM patients were used to isolate BMMNCs and culture adherent BMMSCs as described elsewhere (Prins H J, et al. Tissue Eng Part A. 2009, 15:3741-3751). To minimalize inter-individual variation, all experiments were performed with cells from a pool of BMMSCs derived from twelve MM patients at passage 3.
# human tumors = details: cited from earlier work
# [2] = cited from earlier work
# MM cell lines = assay: BLI-based cytotoxicity assay using LUC-transduced MM cell lines; design: species or system human
# Description: Cell lines and culture: Luciferase (LUC)-transduced MM cell lines RPMI 8226, JJN3, UM9, MM1.s, U266, L363, and OPM-2 were cultured in RPMI 1640 (Life Technologies), supplemented with 10% heat-inactivated HyClone FetalClone I serum (GE Healthcare Life Sciences) and (penicillin, 10.000 U/mL; streptomycin, […]; InVitrogen,). HS-5 was cultured in DMEM (Life Technologies), supplemented with heat-inactivated FBS (Sigma) and antibiotics.
# [3] = system: pro-apoptotic signaling, cleavage of caspase-3 and PARP; assay: Western blotting of FL118-treated MM cell lines; type: cell-based, human
# Description: Western blotting: Untreated or FL118 treated (16 h) MM cell lines were washed twice with ice-cold PBS. Cell pellets were then snap-frozen and stored at −80° C. until further use. Pellets were dissolved in Radioimmunoprecipitation (RIPA) lysis buffer, supplemented with protease inhibitor cocktail (Roche) and incubated on ice for 45 minutes. Lysates were centrifuged at 14000 g for 10 minutes at 4° C. and supernatant was collected. Protein concentrations were determined by a DC protein assays (Bio-Rad). Samples were separated on 4-20% Mini-protean TGX precast gels (Bio-Rad) and proteins were transferred to Immobilon-FL PVDF membrane (Merck Millipore). After 1 h blocking with Odyssey Block Buffer (LI-COR) at room temperature, membranes were incubated with primary antibodies over night at 4° C. (anti-Mcl-1, anti-survivin Santa Cruz; anti-XIAP, anti-Bcl-2, anti-PUMA, anti-p21 Waf/Cip1, anti-PARP, anti-caspase-3 Cell Signaling Technology; anti-p53 DAKO; anti-NOXA, anti-Actin Merck Millipore). Blots were visualized by Odyssey infrared imaging (LICOR Biosciences) using IRDye 680 Goat-anti-Rabbit (LI-COR Lincoln) and IRDye 800CW Goat-anti-Mouse IgG (LI-COR Lincoln) according to manufacturer's instructions. Band intensities were quantified using Odyssey software.
smiles,measurement,setting,value
CC[C@@]1(O)C(=O)OCc2c1cc1n(c2=O)Cc2cc3cc4c(cc3nc2-1)OCO4 [FL118],hematopoietic and biochemical toxicities,[1],very low
same,levels of Survivin expression,Survivin,significantly reduced
same,toxic effects on resting T-cells or NK-cells,"T-cells and NK-cells; BMMNC samples from MM or PCL patients, 24 hours",no toxic effects
same,toxic effects on PMA-activated CD25+ T-cells,"T-cells and NK-cells; healthy individuals, 48 hours",no toxic effects
same,"effect on PDX tumors resistant/non-sensitive to FL118 and gemcitabine, combination with gemcitabine",PDX tumors,eliminated the PDX tumors
same,"effect on PDX tumors, FL118 alone",PDX tumors,effectively eliminated PDX tumors
same,concentration range for inhibition of cancer cell growth,cancer cell growth,high pM to low nM range
same,toxicity against BMMSCs,BMMSCs; serial concentrations of FL118,minimal toxicity
same,toxic effects on BMMSCs,BMMSCs; up to a dose of 100 nM,no toxic effects
same,activity on irinotecan and topotecan-resistant human tumors,human tumors; animal models,effectively overcomes
same,tumor elimination,human tumors; two-month experimental period,eliminate small and large volume human tumors without relapse in a high percentage of mice
same,antitumor activity compared with FDA-approved anticancer drugs,"human tumors; versus irinotecan, topotecan, doxorubicin, 5-FU, gemcitabine, docetaxel, oxaliplatin, cytoxan, cisplatin",significantly better antitumor activity
same,oral availability,"[2]; in vivo, po",orally available
same,pharmacokinetics (PK) profile,"[2]; intravenous administration, accumulated in tumor, rapidly cleared in blood stream",favorable
same,lysis of MM cell lines in the presence of BMMSCs,MM cell lines; 5 of 6 MM cell lines,"not reduced, or even increased"
same,stroma-cell induced drug resistance against bortezomib and doxorubicin,"MM cell lines; MM1.s and UM9 co-cultured with BMMSCs or HS-5, 48 hours",effectively abrogated
same,combination activity with melphalan or bortezomib,"MM cell lines; MM cell lines, 48 hours",at least additive activity
same,lysis of MM cell line in the presence of BMMSCs,MM cell lines; cell line UM9,minimal reduction
same,pro-apoptotic signaling,"[3]; high- and intermediate-susceptible MM1.s and U266, 16 hours",promotes pro-apoptotic signaling
same,pro-apoptotic signaling,"[3]; low-susceptible L363, 16 hours",not
